Experimental data taken from PubChem BioAssay (NCI).
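Step 1: Grow cells in 96-well plates. Step 2: Expose to compound for 48 hours at 5 concentrations. Step 3: Interpolate endpoints linearly; if unreached, use highest concentration. GI50: concentration for 50% inhibition of growth. TGI is the concentration that stops growth completely.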

How the values were obtained:
Assay in all cases: inhibition of tumour cell growth, NCI panel, 48 h
MCF7 breast = tested on: MCF7 breast
HL-60(TB) leukemia = tested on: HL-60(TB) leukemia
HT29 colon = tested on: HT29 colon
CAKI-1 renal = tested on: CAKI-1 renal
NCI-H460 lung = tested on: NCI-H460 lung
BT-549 breast = tested on: BT-549 breast
DU-145 prostate = tested on: DU-145 prostate
IGROV1 ovarian = tested on: IGROV1 ovarian
SN12C renal = tested on: SN12C renal
NCI-H226 lung = tested on: NCI-H226 lung
ACHN renal = tested on: ACHN renal
SK-OV-3 ovarian = tested on: SK-OV-3 ovarian
KM12 colon = tested on: KM12 colon
CCRF-CEM leukemia = tested on: CCRF-CEM leukemia
OVCAR-3 ovarian = tested on: OVCAR-3 ovarian
SF-295 CNS = tested on: SF-295 CNS
MDA-MB-231 breast = tested on: MDA-MB-231 breast
TK-10 renal = tested on: TK-10 renal
HOP-62 NSCLC = tested on: HOP-62 NSCLC
HCT-15 colon = tested on: HCT-15 colon
MALME-3M melanoma = tested on: MALME-3M melanoma
RXF 393 renal = tested on: RXF 393 renal
NCI/ADR-RES ovarian = tested on: NCI/ADR-RES ovarian
SR leukemia = tested on: SR leukemia
MDA-MB-435 = tested on: MDA-MB-435
PC-3 prostate = tested on: PC-3 prostate
COLO 205 colon = tested on: COLO 205 colon
A498 renal = tested on: A498 renal
K-562 leukemia = tested on: K-562 leukemia
SNB-75 CNS = tested on: SNB-75 CNS
SK-MEL-5 melanoma = tested on: SK-MEL-5 melanoma
OVCAR-5 ovarian = tested on: OVCAR-5 ovarian
SF-539 CNS = tested on: SF-539 CNS
M14 melanoma = tested on: M14 melanoma
UACC-62 melanoma = tested on: UACC-62 melanoma
HOP-92 NSCLC = tested on: HOP-92 NSCLC
RPMI-8226 leukemia = tested on: RPMI-8226 leukemia
U251 CNS = tested on: U251 CNS
MOLT-4 leukemia = tested on: MOLT-4 leukemia
A549 NSCLC = tested on: A549 NSCLC
SK-MEL-28 melanoma = tested on: SK-MEL-28 melanoma
UO-31 renal = tested on: UO-31 renal
HCC-2998 colon = tested on: HCC-2998 colon
HS 578T breast = tested on: HS 578T breast
SK-MEL-2 melanoma = tested on: SK-MEL-2 melanoma
LOX IMVI melanoma = tested on: LOX IMVI melanoma
UACC-257 melanoma = tested on: UACC-257 melanoma
SF-268 CNS = tested on: SF-268 CNS
NCI-H522 lung = tested on: NCI-H522 lung
786-0 renal = tested on: 786-0 renal
OVCAR-8 ovarian = tested on: OVCAR-8 ovarian
OVCAR-4 ovarian = tested on: OVCAR-4 ovarian
EKVX NSCLC = tested on: EKVX NSCLC
SW-620 colon = tested on: SW-620 colon
SNB-19 CNS = tested on: SNB-19 CNS
T-47D breast = tested on: T-47D breast
NCI-H23 lung = tested on: NCI-H23 lung
HCT-116 colon = tested on: HCT-116 colon

c1ccc(-c2c(-c3ccccc3)[n+](Cc3ccc4ccccc4c3)c(-c3cccc4ccccc34)n2Cc2ccc3ccccc3c2)cc1
GI50 (MCF7 breast): 169 nM
TGI (MCF7 breast): 1070 nM
GI50 (HL-60(TB) leukemia): 34.2 nM
TGI (HL-60(TB) leukemia): 228 nM
GI50 (HT29 colon): 46.6 nM
TGI (HT29 colon): 1100 nM
GI50 (CAKI-1 renal): 265 nM
TGI (CAKI-1 renal): 1010 nM
GI50 (NCI-H460 lung): 154 nM
TGI (NCI-H460 lung): 1140 nM
GI50 (BT-549 breast): 122 nM
TGI (BT-549 breast): 1180 nM
GI50 (DU-145 prostate): 262 nM
TGI (DU-145 prostate): 1440 nM
GI50 (IGROV1 ovarian): 147 nM
TGI (IGROV1 ovarian): 1390 nM
GI50 (SN12C renal): 127 nM
TGI (SN12C renal): 1140 nM
GI50 (NCI-H226 lung): 203 nM
TGI (NCI-H226 lung): 828 nM
GI50 (ACHN renal): 249 nM
TGI (ACHN renal): 743 nM
GI50 (SK-OV-3 ovarian): 207 nM
TGI (SK-OV-3 ovarian): 973 nM
GI50 (KM12 colon): 98.7 nM
TGI (KM12 colon): 758 nM
GI50 (CCRF-CEM leukemia): 128 nM
TGI (CCRF-CEM leukemia): 1660 nM
GI50 (OVCAR-3 ovarian): 94.5 nM
TGI (OVCAR-3 ovarian): 1280 nM
GI50 (SF-295 CNS): 90.6 nM
TGI (SF-295 CNS): 458 nM
GI50 (MDA-MB-231 breast): 220 nM
TGI (MDA-MB-231 breast): 1000 nM
GI50 (TK-10 renal): 239 nM
TGI (TK-10 renal): 1530 nM
GI50 (HOP-62 NSCLC): 301 nM
TGI (HOP-62 NSCLC): 1780 nM
GI50 (HCT-15 colon): 327 nM
TGI (HCT-15 colon): 1210 nM
GI50 (MALME-3M melanoma): 91 nM
TGI (MALME-3M melanoma): 1000 nM
GI50 (RXF 393 renal): 220 nM
TGI (RXF 393 renal): 949 nM
GI50 (NCI/ADR-RES ovarian): 1300 nM
TGI (NCI/ADR-RES ovarian): 2940 nM
GI50 (SR leukemia): 192 nM
TGI (SR leukemia): 1530 nM
GI50 (MDA-MB-435): 284 nM
TGI (MDA-MB-435): 1180 nM
GI50 (PC-3 prostate): 64.1 nM
TGI (PC-3 prostate): 1210 nM
GI50 (COLO 205 colon): 76.5 nM
TGI (COLO 205 colon): 228 nM
GI50 (A498 renal): < 47.1 nM
TGI (A498 renal): 398 nM
GI50 (K-562 leukemia): 45.1 nM
TGI (K-562 leukemia): > 100000 nM
GI50 (SNB-75 CNS): 192 nM
TGI (SNB-75 CNS): 955 nM
GI50 (SK-MEL-5 melanoma): 155 nM
TGI (SK-MEL-5 melanoma): 296 nM
GI50 (OVCAR-5 ovarian): 321 nM
TGI (OVCAR-5 ovarian): 1350 nM
GI50 (SF-539 CNS): 371 nM
TGI (SF-539 CNS): 1500 nM
GI50 (M14 melanoma): 187 nM
TGI (M14 melanoma): 1440 nM
GI50 (UACC-62 melanoma): 286 nM
TGI (UACC-62 melanoma): 1400 nM
GI50 (HOP-92 NSCLC): 79.1 nM
TGI (HOP-92 NSCLC): 479 nM
GI50 (RPMI-8226 leukemia): 32.6 nM
TGI (RPMI-8226 leukemia): 295 nM
GI50 (U251 CNS): 74.7 nM
TGI (U251 CNS): 1460 nM
GI50 (MOLT-4 leukemia): 233 nM
TGI (MOLT-4 leukemia): 1270 nM
GI50 (A549 NSCLC): 166 nM
TGI (A549 NSCLC): 1570 nM
GI50 (SK-MEL-28 melanoma): 191 nM
TGI (SK-MEL-28 melanoma): 1880 nM
GI50 (UO-31 renal): 306 nM
TGI (UO-31 renal): 1280 nM
GI50 (HCC-2998 colon): 131 nM
TGI (HCC-2998 colon): 1500 nM
GI50 (HS 578T breast): 302 nM
TGI (HS 578T breast): 2200 nM
GI50 (SK-MEL-2 melanoma): 140 nM
TGI (SK-MEL-2 melanoma): 758 nM
GI50 (LOX IMVI melanoma): 150 nM
TGI (LOX IMVI melanoma): 496 nM
GI50 (UACC-257 melanoma): 221 nM
TGI (UACC-257 melanoma): 958 nM
GI50 (SF-268 CNS): 220 nM
TGI (SF-268 CNS): 1760 nM
GI50 (NCI-H522 lung): 253 nM
TGI (NCI-H522 lung): 978 nM
GI50 (786-0 renal): 231 nM
TGI (786-0 renal): 1630 nM
GI50 (OVCAR-8 ovarian): 153 nM
TGI (OVCAR-8 ovarian): 1540 nM
GI50 (OVCAR-4 ovarian): 187 nM
TGI (OVCAR-4 ovarian): 1120 nM
GI50 (EKVX NSCLC): 187 nM
TGI (EKVX NSCLC): 1430 nM
GI50 (SW-620 colon): 151 nM
TGI (SW-620 colon): 1330 nM
GI50 (SNB-19 CNS): 108 nM
TGI (SNB-19 CNS): 1420 nM
GI50 (T-47D breast): 64.8 nM
TGI (T-47D breast): 1270 nM
GI50 (NCI-H23 lung): 146 nM
TGI (NCI-H23 lung): 748 nM
GI50 (HCT-116 colon): 92.7 nM
TGI (HCT-116 colon): 1250 nM
